Source: patent publication US12715894B2, “Triptolide conjugates and uses thereof” (priority 2020, dated 2026)

Key:
HepG-2 cells = experiment: HepG-2 HCC animal model, antitumor efficacy against solid tumors; type: in vivo, male nude mice; conditions: HepG-2 xenograft; Conjugate 4 at 2.0 mg/kg, Conjugates 8, 9, 10 at 6.0 mg/kg, i.p. daily for 4 weeks; vehicle group increased to 17.72 times
Method: To evaluate the antitumor efficacy of the novel triptolide-conjugate against solid tumors, HepG-2 cells (~10×10^6 cells) were injected into the right flank of male nude mice. when the tumors were reached a volume of ~150 mm^3, mice were randomly divided into 5 groups with 8 mice per group and treated as below indicated. Tumor volumes were measured twice per week and estimated by using the formula: Tumor volume (V)=(L×W×W) 2, W is tumor width, L is tumor length. • 1. Group 1 is the control in which the mice were daily administered vehicle (i.p. brine) for 4 weeks; • 2. in Group 2, mice were daily administered Conjugate 4 (2.0 mg/kg, i.p.) for 4 weeks; • 3. in Group 3, mice were daily administered Conjugate 8 (6.0 mg/kg, i.p.) for 4 weeks; • 4. in Group 4, mice were daily administered Conjugate 9 (6.0 mg/kg i.p.) for 4 weeks; • 5. in Group 5, mice were daily administered Conjugate 10 (6.0 mg/kg, i.p.) for 4 weeks;

huh-7 cells = experiment: Huh-7 HCC animal model, antitumor efficacy against solid tumors; type: in vivo, male nude mice; conditions: Huh-7 xenograft; for Tumor volume (V) 4 days after treatment: Compound 1 and 2 at 2.0 mg/kg i.p. once daily, Lenvatinib 5.0 mg/kg oral once daily, control V=598 mm^3; for Tumor inhibition rate based on the average tumor weights: after 21 days treatment, Compound 1 and 2 at 2.0 mg/kg i.p. daily, Lenvatinib 5.0 mg/kg oral daily; for Increase of average tumor volume by the end of the treatment compared to before the treatment: end of 3 weeks daily treatment, given as 'increased up to', control up to 15 times
Method: To evaluate the antitumor efficacy of the triptolide conjugates disclosed herein against solid tumors, huh-7 cells (~10×10^6 cells) were injected into the right flank of male nude mice. When the tumors reached a volume of ~150 mm^3, the mice were randomly divided into 4 groups with 7 or 8 mice per group and were treated as below indicated. Tumor volumes were measured twice per week and estimated by using the formula: Tumor volume (V)=(L×W×W)÷2, W is tumor width, L is tumor length. • 1. Group 1 was the control group in which the mice were administered daily the vehicle (0.5% CMC-Na/carboxymethylcellulose sodium, i.p.) for 3 weeks; • 2. Group 2 was the test group in which the mice were administered daily Compound 1 (2.0 mg/kg, i.p.) for 3 weeks; • 3. Group 3 was the test group in which the mice were administered daily Compound 2 (2.0 mg/kg, i.p.) for 3 weeks; and • 4. Group 4 was the positive control group in which the mice where administered daily Lenvatinib (5.0 mg/kg, oral) for 3 weeks.

| Structure (SMILES) | Tumor size after 28 days treatment (HepG-2 cells) | Tumor volume (V) 4 days after treatment (huh-7 cells) [mm^3] | Tumor inhibition rate based on the average tumor weights (huh-7 cells) [%] | Increase of average tumor volume by the end of the treatment compared to before the treatment (huh-7 cells) |
| --- | --- | --- | --- | --- |
| CC(C)[C@]12O[C@H]1[C@@H]1O[C@]13[C@]1(O[C@H]1CC1C4=C(CC[C@@]13C)C(=O)OC4)[C@@H]2OC(=O)CCC(=O)NC(COCCC(=O)NCCCNC(=O)CCCC(=O)N[C@H]1C(O)O[C@H](CO)[C@@H](O)[C@@H]1O)(COCCC(=O)NCCCNC(=O)CCCC(=O)N[C@H]1C(O)O[C@H](CO)[C@@H](O)[C@@H]1O)COCCC(=O)NCCCNC(=O)CCCC(=O)N[C@H]1C(O)O[C@H](CO)[C@@H](O)[C@@H]1O (stereo partly shown) [Compound 8] | gradually shrinked to disappear |  |  |  |
| CC(C)[C@]12O[C@H]1[C@@H]1O[C@]13[C@]1(O[C@H]1C[C@H]1C4=C(CC[C@@]13C)C(=O)OC4)[C@@H]2OC(=O)CCC(=O)N1CCN(C(=O)CCC(=O)N[C@@H]2C(O)O[C@@H](CO)[C@H](O)[C@H]2O)CC1 (stereo partly drawn) [Compound 2, (5bS,6aS,7aR,8R,8aS,9aS,9bS,10aS,10bS)-8a-isopropyl-10b-methyl-3-oxo-1,2,3,5,5b,6,6a,8,8a,9a,9b,10b-dodecahydrotris(oxireno)[2′,3′:4b,5;2″,3″:6,7;2′″,3′″:8a,9]phenanthro[1,2-c]furan-8-yl 4-oxo-4-(4-(4-oxo-4-(((3S,4S,5R,6S)-2,4,5-trihydroxy-6-(hydroxymethyl)tetrahydro-2H-pyran-3-yl)amino)butanoyl)piperazin-1-yl)butanoate] |  | 315 | 84.4 | ≤ 2.7 times |
| CC(C)[C@]12O[C@H]1[C@@H]1O[C@]13[C@]1(O[C@H]1CC1C4=C(CC[C@@]13C)C(=O)OC4)[C@@H]2OC(=O)CCC(=O)NC(COCCC(=O)NCCCNC(=O)CCCCO[C@@H]1O[C@H](CO)[C@@H](O)[C@H](O)[C@H]1O)(COCCC(=O)NCCCNC(=O)CCCCO[C@@H]1O[C@H](CO)[C@@H](O)[C@H](O)[C@H]1O)COCCC(=O)NCCCNC(=O)CCCCO[C@@H]1O[C@H](CO)[C@@H](O)[C@H](O)[C@H]1O (stereo partly shown) [Compound 9] | gradually shrinked to disappear |  |  |  |
| COc1cc2nccc(Oc3ccc(NC(=O)NC4CC4)c(Cl)c3)c2cc1C(N)=O [Lenvatinib, reference compound] |  | 381 | 42.3 | ≤ 9 times |
| CC(C)[C@]12O[C@H]1[C@@H]1O[C@]13[C@]1(O[C@H]1C[C@H]1C4=C(CC[C@@]13C)C(=O)OC4)[C@@H]2OC(=O)CCC(=O)OC[C@H]1OC(O)[C@H](F)[C@@H](O)[C@@H]1O (stereo partly drawn) [Compound 1, ((2R,3S,4S,5R)-5-fluoro-3,4,6-trihydroxytetrahydro-2H-pyran-2-yl)methyl ((5bS,6aS,7aR,8R,8aS,9aS,9bS,10aS,10bS)-8a-isopropyl-10b-methyl-3-oxo-1,2,3,5,5b,6,6a,8,8a,9a,9b,10b-dodecahydrotris(oxireno)[2′,3′:4b,5;2″,3″:6,7;2′″,3′″:8a,9]phenanthro[1,2-c]furan-8-yl) succinate] |  | 245 | 88.3 | up to 2.0 times |
| CC(=O)N[C@H]1[C@H](OCCCCC(=O)NCCCNC(=O)CCOCC(COCCC(=O)NCCCNC(=O)CCCCO[C@@H]2O[C@H](CO)[C@H](O)[C@H](O)[C@H]2NC(C)=O)(COCCC(=O)NCCCNC(=O)CCCCO[C@@H]2O[C@H](CO)[C@H](O)[C@H](O)[C@H]2NC(C)=O)NC(=O)CCC(=O)O[C@@H]2[C@@]3(C(C)C)O[C@H]3[C@@H]3O[C@]34[C@]23O[C@H]3CC2C3=C(CC[C@@]24C)C(=O)OC3)O[C@H](CO)[C@H](O)[C@@H]1O (stereo partly shown) [Compound 10] | gradually shrinked to disappear |  |  |  |
| CC(C)[C@]12O[C@H]1[C@@H]1O[C@]13[C@]1(O[C@H]1C[C@H]1C4=C(CC[C@@]13C)C(=O)OC4)[C@@H]2OC(=O)CNC(=O)CNC(=O)COC[C@H]1OC(O)[C@H](O)[C@@H](O)[C@@H]1O (stereo partly shown) [Compound 4] | gradually shrinked to disappear |  |  |  |
